Source: patent US20100056563A1, “NOVEL 1.8-NAPHTHYRIDINE COMPOUNDS” (priority 2007, published 2010)

Target: T1, FLAG-tagged full length PHD2 (Homo sapiens, UniProt Q9GZT9)
T1 construct: FLAG-tagged full length PHD2; FLAG; made in house; host or cells: baculovirus-infected Sf9 cells
Assay: HIF-PHD2 time resolved fluorescence inhibition assay (HIF-1α peptide hydroxylation, VHL complex detection)
Format: biochemical
Conditions: 0.2 μM 2-oxoglutarate, 0.5 μM HIF-1α peptide, 2 hr at room temperature
Method: To each well of a 96-well plate was added […] of test compound in DMSO and 20 μl of assay buffer (50 mM Tris pH 7.4/0.01% Tween-20/0.1 mg/ml bovine serum albumin/10 μM ferrous sulfate/1 mM sodium ascorbate/20 μg/ml catalase) containing 0.15 μg/ml FLAG-tagged full length PHD2 expressed in and purified from baculovirus-infected Sf9 cells. After a […] preincubation at room temperature, the enzymatic reactions were initiated by the addition of 4 μL of substrates (final concentrations of 0.2 μM 2-oxoglutarate and 0.5 μM HIF-1α peptide biotinyl-DLDLEMLAPYIPMDDDFQL). After 2 hr at room temperature, the reactions were terminated and signals were developed by the addition of a 25 μL quench/detection mix to a final concentration of 1 mM ortho-phenanthroline, 0.1 mM EDTA, 0.5 nM anti-(His)6 LANCE reagent (Perkin-Elmer Life Sciences), 100 nM AF647-labeled streptavidin (Invitrogen), and 2 μg/ml (His)6-VHL complex (S. Tan (2001) Protein Expr. Purif. 21, 224-234). The ratio of time resolved fluorescence signals at 665 and 620 nm was determined, and percent inhibition was calculated relative to an uninhibited control sample run in parallel.

T1 sequence (Q9GZT9 whole entry): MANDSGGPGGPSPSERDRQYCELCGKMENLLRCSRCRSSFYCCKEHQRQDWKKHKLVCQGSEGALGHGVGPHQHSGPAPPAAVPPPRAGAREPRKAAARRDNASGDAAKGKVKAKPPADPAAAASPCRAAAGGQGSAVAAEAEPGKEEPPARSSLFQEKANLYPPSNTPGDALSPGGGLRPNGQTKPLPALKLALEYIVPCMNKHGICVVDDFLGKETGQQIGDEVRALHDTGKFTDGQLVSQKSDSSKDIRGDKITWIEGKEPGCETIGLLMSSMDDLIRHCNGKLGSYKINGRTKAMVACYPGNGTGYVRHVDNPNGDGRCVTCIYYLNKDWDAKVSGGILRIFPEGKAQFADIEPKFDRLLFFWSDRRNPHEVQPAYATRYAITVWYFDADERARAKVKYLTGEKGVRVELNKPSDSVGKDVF

IC50: 1.5 nM
Compound: O=C(O)CNC(=O)c1c(O)c2cc(Cl)cnc2n(Cc2nc3ccccc3s2)c1=O [Example 40, ({[1-(1,3-Benzothiazol-2-ylmethyl)-6-chloro-4-hydroxy-2-oxo-1,2-dihydro-1,8-naphthyridin-3-yl]carbonyl}amino)acetic acid]
